In US9187450B2, “Substituted pyridine compound” (Daiichi Sankyo Company, Limited, priority 2010, dated 2015) one finds IC50 data, which are given here for 14 compounds.

The experiment deals with recombinant human CETP protein (Homo sapiens (Human), UniProt P11597). The experiment is described as follows: Test of CETP inhibition activity (in vitro, buffer-based). Format: biochemical. Particulars: reconstituted HDL with [14C]-labeled cholesteryl ester, acceptor lipoprotein, 37° C. On the procedure: Test of CETP Inhibition Activity (In Vitro, Buffer-Based)
Sequence of recombinant human CETP protein (P11597 18-493): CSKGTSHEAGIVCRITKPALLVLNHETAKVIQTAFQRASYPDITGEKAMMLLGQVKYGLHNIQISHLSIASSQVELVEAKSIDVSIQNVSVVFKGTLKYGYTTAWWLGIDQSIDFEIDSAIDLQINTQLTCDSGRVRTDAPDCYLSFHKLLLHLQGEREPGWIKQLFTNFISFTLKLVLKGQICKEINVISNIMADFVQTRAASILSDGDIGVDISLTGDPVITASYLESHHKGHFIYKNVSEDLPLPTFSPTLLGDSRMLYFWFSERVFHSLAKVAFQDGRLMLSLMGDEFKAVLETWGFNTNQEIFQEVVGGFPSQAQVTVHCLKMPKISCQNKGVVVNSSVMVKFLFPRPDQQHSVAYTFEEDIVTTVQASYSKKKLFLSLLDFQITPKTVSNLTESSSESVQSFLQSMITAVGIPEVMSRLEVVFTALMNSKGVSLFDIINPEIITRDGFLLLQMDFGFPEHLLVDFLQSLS
(1) Preparation of Reconstituted HDL
Cholesterol (1.125 μmol), phosphatidyl choline (4.5 μmol) and [^14C]-labeled cholesteryl ester (2.0 μCi; 40 μl) were taken in a glass test tube and well mixed with a vortex, and dried under a nitrogen gas current so that it formed a thin film. The obtained mixture was dissolved in ethanol (200 μl), which was designated as Solution A. A PBS solution [a mixed solution of Na2HPO4 (30 mM), KH2PO4 (8.8 mM), NaCl (60 mM) and EDTA (pH 7.4; 0.67 mM); 4 ml] was taken in a tube and the reaction solution was vigorously stirred with a vortex under a nitrogen current. The above-described Solution A was gently injected into this mixture with a syringe and the reaction solution was vigorously stirred with a vortex for 5 minutes under a nitrogen current. Sodium cholate ([…]; 0.38 ml) was added to the obtained mixture and the reaction solution was stirred for 2 minutes. ApoA-I protein (3 mg) was added to the obtained mixture and the reaction solution was stirred for 2 minutes. The obtained mixture was adjusted to 5 ml with the PBS solution and then dialyzed with the PBS solution. The obtained mixture was designated as the reconstituted HDL.
(2) Preparation of Acceptor Lipoprotein
NaBr was added to the plasma of a healthy person and the density of the mixture was adjusted to 1.019, and the mixture was subjected to density gradient centrifugation (40000 rpm, for 16 hours) to remove the fraction having a density of less than 1.019. NaBr was added to the obtained mixture and the density of the solution was adjusted to 1.063, and the solution was subjected to density gradient centrifugation (40000 rpm, 18 hours) to provide the fraction consisting of IDL (intermediate density lipoprotein) and LDL (1.019<density<1.063). The obtained fraction was dialyzed with the PBS solution. The obtained mixture was designated as the acceptor lipoprotein.
(3) Measurement of CETP Inhibition Activity
A recombinant human CETP protein (manufactured by Roar Biomedical Inc.; 4.5 ng), the acceptor lipoprotein described in (2) above (32.5 μg) and 5,5′-dithio-bis-(2-nitrobenzoic acid) (7 mM, 15 μl) were taken in a 96 well plate and the total amount of the mixture was adjusted to 48.5 μl with the PBS solution. The test compound [DMSO solution (concentration: 0.15, 0.5, 1.5, 5, 15, 50, 150 and 500 μM; 1.5 μl] was added to each well and the mixture was incubated in a thermostatic bath at 37° C. for 60 minutes. The reconstituted HDL (50 μl) described in (1) above was added to each well and the mixture was reacted in a thermostatic bath at 37° C. for 60 minutes. The 96 well plate was moved onto ice and a precipitation reagent [a mixed solution of magnesium chloride (60 mM) and 0.1% dextran sulfate [1/1 (v/v)]; 15 μl] was added to each well, and then the mixture was allowed to stand on ice for 15 minutes. The reaction solution (80 μl) in each well was moved to a filter plate and centrifuged at 1500 rpm for 1 minute, and the filtrate which passed through the filter was designated as the HDL fraction and the radioactivity thereof was measured with a scintillation counter. The percentage decrease in radioactivity in the case where the test compound was added in comparison with that in case where the test compound was not added was designated as the percentage CETP inhibition. The IC50 value was calculated from the percentage CETP inhibition.
With `CC(C)COc1cnc(N2CCC(c3nc4c(c(C5CCC(F)(F)CC5)c3[C@@H](F)c3ccc(C(F)(F)F)cc3)[C@@H](O)CC(C)(C)C4)CC2)nc1` (single isomer, unassigned) [Example 21, (−)-4-(4,4-difluorocyclohexyl)-3-{fluoro[4-(trifluoromethyl)phenyl]methyl}-7,7-dimethyl-2-{1-[5-(2-methylpropoxy)pyrimidine-2-yl]piperidin-4-yl}-5,6,7,8-tetrahydroquinoline-5-ol], the concentration for half-maximal inhibition (IC50) – broadly, the concentration needed to halve the response being measured – came out at 99 nM.

Consider `CC(C)CCOc1cnc(N2CCC(c3nc4c(c(C5CCC(F)(F)CC5)c3[C@@H](F)c3ccc(C(F)(F)F)cc3)[C@@H](O)CC(C)(C)C4)CC2)nc1` (single isomer, unassigned) [Example 22, (−)-4-(4,4-difluorocyclohexyl)-3-{fluoro[4-(trifluoromethyl)phenyl]methyl}-7,7-dimethyl-2-{1-[5-(3-methylbutoxyl)pyrimidine-2-yl]piperidin-4-yl}-5,6,7,8-tetrahydroquinoline-5-ol], for which the IC50 is 111 nM. In the case of `CC1(C)Cc2nc(C3CCN(c4ncc(OCCCCC(=O)O)cn4)CC3)c([C@@H](F)c3ccc(C(F)(F)F)cc3)c(C3CCC(F)(F)CC3)c2[C@@H](O)C1` (single isomer, unassigned) [Example 23, (−)-2-{1-[5-(4-Carboxybutoxyl)pyrimidin-2-yl]piperidin-4-yl}-4-(4,4-difluorocyclohexyl)-3-{fluoro[4-(trifluoromethyl)phenyl]methyl}-7,7-dimethyl-5,6,7,8-tetrahydroquinolin-5-ol] it was 37 nM; in that of `CC(C)Cc1cnc(N2CCC(c3nc4c(c(C5CCC(F)(F)CC5)c3[C@@H](F)c3ccc(C(F)(F)F)cc3)[C@@H](O)CC(C)(C)C4)CC2)nc1` (single isomer, unassigned) [Example 24, (−)-4-(4,4-Difluorocyclohexyl)-3-{fluoro[4-(trifluoromethyl)phenyl]methyl}-7,7-dimethyl-2-{1-[5-(2-methylpropyl)pyrimidin-2-yl]piperidin-4-yl}-5,6,7,8-tetrahydroquinolin-5-ol], 54 nM. In the case of `CC1(C)Cc2nc(C3CCN(c4ncc(CCCCC(=O)O)cn4)CC3)c([C@@H](F)c3ccc(C(F)(F)F)cc3)c(C3CCC(F)(F)CC3)c2[C@@H](O)C1` (single isomer, unassigned) [Example 25, (−)-2-{1-[5-(4-carboxybutyl)pyrimidine-2-yl]piperidin-4-yl}-4-(4,4-difluorocyclohexyl)-3-{fluoro[4-(trifluoromethyl)phenyl]methyl}-7,7-dimethyl-5,6,7,8-tetrahydroquinoline-5-ol], the IC50 worked out at 19 nM. The same measure for `CCOCc1cnc(N2CCC(c3nc4c(c(C5CCC(F)(F)CC5)c3[C@@H](F)c3ccc(C(F)(F)F)cc3)[C@@H](O)CC(C)(C)C4)CC2)nc1` (single isomer, unassigned) [Example 26, (−)-4-(4,4-Difluorocyclohexyl)-2-{1-[5-(ethoxymethyl)pyrimidin-2-yl]piperidin-4-yl}-3-{fluoro[4-(trifluoromethyl)phenyl]methyl}-7,7-dimethyl-5,6,7,8-tetrahydroquinolin-5-ol]: 45 nM; for `COCc1cnc(N2CCC(c3nc4c(c(C5CCC(F)(F)CC5)c3[C@@H](F)c3ccc(C(F)(F)F)cc3)[C@@H](O)CC(C)(C)C4)CC2)nc1` (single isomer, unassigned) [Example 27, (−)-4-(4,4-Difluorocyclohexyl)-3-{fluoro[4-(trifluoromethyl)phenyl]methyl}-2-{1-[5-(methoxymethyl)pyrimidin-2-yl]piperidin-4-yl}-7,7-dimethyl-5,6,7,8-tetrahydroquinolin-5-ol]: 40 nM; for `CC(C)OCc1cnc(N2CCC(c3nc4c(c(C5CCC(F)(F)CC5)c3[C@@H](F)c3ccc(C(F)(F)F)cc3)[C@@H](O)CC(C)(C)C4)CC2)nc1` (single isomer, unassigned) [Example 28, (−)-4-(4,4-difluorocyclohexyl)-3-{fluoro[4-(trifluoromethyl)phenyl]methyl}-7,7-dimethyl-2-(1-{5-[(propan-2-yloxy)methyl]pyrimidine-2-yl}piperidin-4-yl)-5,6,7,8-tetrahydroquinoline-5-ol]: 78 nM. In the case of `CC(C)COCc1cnc(N2CCC(c3nc4c(c(C5CCC(F)(F)CC5)c3[C@@H](F)c3ccc(C(F)(F)F)cc3)[C@@H](O)CC(C)(C)C4)CC2)nc1` (single isomer, unassigned) [Example 29, (−)-4-(4,4-Difluorocyclohexyl)-3-{fluoro[4-(trifluoromethyl)phenyl]methyl}-7,7-dimethyl-2-(1-{5-[(2-methylpropoxy)methyl]pyrimidin-2-yl}piperidin-4-yl)-5,6,7,8-tetrahydroquinolin-5-ol] it was 62 nM. As for `CNC(=O)c1cnc(N2CCC(c3nc4c(c(C5CCC(F)(F)CC5)c3[C@@H](F)c3ccc(C(F)(F)F)cc3)[C@@H](O)CC(C)(C)C4)CC2)nc1` (single isomer, unassigned) [Example 30, 4-(4,4-Difluorocyclohexyl)-3-{fluoro[4-(trifluoromethyl)phenyl]methyl}-7,7-dimethyl-2-{1-[5-(methylcarbamoyl)pyrimidin-2-yl]piperidin-4-yl}-5,6,7,8-tetrahydroquinolin-5-ol], the IC50 was found to be 32 nM. For `CN(C)C(=O)c1cnc(N2CCC(c3nc4c(c(C5CCC(F)(F)CC5)c3[C@@H](F)c3ccc(C(F)(F)F)cc3)[C@@H](O)CC(C)(C)C4)CC2)nc1` (single isomer, unassigned) [Example 31, (−)-4-(4,4-Difluorocyclohexyl)-2-{1-[5-(dimethylcarbamoyl)pyrimidin-2-yl]piperidin-4-yl}-3-{fluoro[4-(trifluoromethyl)phenyl]methyl}-7,7-dimethyl-5,6,7,8-tetrahydroquinolin-5-ol], the IC50 was 29 nM.

Turning to `CC1(C)Cc2nc(C3CCN(c4ncc(C(=O)N5CCOCC5)cn4)CC3)c([C@@H](F)c3ccc(C(F)(F)F)cc3)c(C3CCC(F)(F)CC3)c2[C@@H](O)C1` (single isomer, unassigned) [Example 32, 4-(4,4-Difluorocyclohexyl)-3-{fluoro[4-(trifluoromethyl)phenyl]methyl}-7,7-dimethyl-2-{1-[5-(morpholin-4-yl-carbonyl)pyrimidin-2-yl]piperidin-4-yl}-5,6,7,8-tetrahydroquinolin-5-ol], the IC50 is 19 nM. The same measure for `CC1(C)Cc2nc(C3CCN(c4ncc(CCCC(F)(F)F)cn4)CC3)c([C@@H](F)c3ccc(C(F)(F)F)cc3)c(C3CCC(F)(F)CC3)c2[C@@H](O)C1` (single isomer, unassigned) [Example 33, 4-(4,4-Difluorocyclohexyl)-3-{fluoro[4-(trifluoromethyl)phenyl]methyl}-7,7-dimethyl-2-{1-[5-(4,4,4-trifluorobutyl)pyrimidin-2-yl]piperidin-4-yl}-5,6,7,8-tetrahydroquinolin-5-ol]: 48 nM. In the case of `CC(C)/C=C/c1cnc(N2CCC(c3nc4c(c(C5CCC(F)(F)CC5)c3[C@@H](F)c3ccc(C(F)(F)F)cc3)[C@@H](O)CC(C)(C)C4)CC2)nc1` (single isomer, unassigned) [Example 34, (−)-4-(4,4-Difluorocyclohexyl)-3-{fluoro[4-(trifluoromethyl)phenyl]methyl}-7,7-dimethyl-2-(1-{5-[(1E)-3-methylbut-1-ene-1-yl]pyrimidin-2-yl}piperidin-4-yl)-5,6,7,8-tetrahydroquinolin-5-ol] it was 54 nM.
